Molecules are shown by their SMILES.

By melting point is commonly meant the temperature, or range, at which the solid turns liquid. Turning to `CC(C)c1nc2c(c(-c3ccc(F)cc3)c1CC[C@@H](O)C[C@@H](O)CC(=O)[O-])CCCc1ccccc1-2.[Na+]`, the melting point was in the range of 253 to 254 °C.

Source of the values: patent publication US6620821B2, “HMG-CoA reductase inhibitors and method” (Bristol-Myers Squibb Company, priority 2000, dated 2003).
